Data as given in US20220289732A1, “HETEROCYCLIC WDR5 INHIBITORS AS ANTI-CANCER COMPOUNDS” (NOVARTIS AG, priority 2019, published 2022).

How the values were obtained:
MV4-11 cells = experiment: MV4-11 6-day cell growth CTG (CellTiter-Glo) assay; assay type: cell-based; conditions: Homo sapiens, MV4-11, 144 h, 6 days, read-out: (c) MLL/WDR5 cell proliferation assay//MLL/WDR5 proliferation MV4:11 Qualified AC50
Outline: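 IC50 comes from a dose-response fit of % inhibition relative to DMSO controls, with viable cells measured by CellTiter-Glo luminescence. Compounds were tested over 12 points (1:3, starting at 50 μM final) on MV4-11 cells plated at 300/well and grown 6 days.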

WDR5 = WDR5 (Homo sapiens, UniProt P61964); experiment: WDR5 HTRF binding assay; conditions: read-out: (a) WDR5 HTRF Pep Val v.1[Inhibitor/IC50]Qualified AC50
Outline: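 In this HTRF displacement format, biotinylated MLL1 WIN peptide (3762-3773, 20 nM) binds WDR5 (6 nM) in 25 mM Hepes pH 7.5 with 100 mM NaCl, 2 mM DTT and 0.1% BSA for 20 min at rt. Detection used streptavidin-APC/anti-His-Eu for 1 hr. IC50 came from dose-response fits of normalized signal; 15 nM biotin-PEG-His peptide served as counter assay.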

[1] = target: wild type MLL1 four-member complex (MLL1-4C) (Homo sapiens, UniProt P61964); experiment: MLL1 LC-MS assay (SAH production); assay type: biochemical; conditions: read-out: (b) MLL LCMS Peptide Val.v.1 Qualified AC50
Outline: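 SAH formation, measured by LC-MS/MS after a TFA quench containing d4-SAH, was normalised to no-compound and no-enzyme controls and fitted to a dose-response curve for IC50. Reactions ran 120 min at rt (pH 8.0 Tris buffer) with final 30 nM MLL1 four-member complex, 2.5 μM SAM and 10 μM biotinylated H3[1-21] peptide, after a 20-min enzyme/SAM-compound preincubation.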

Row | Compound | AC50 (MV4-11 cells) | IC50 (WDR5) | AC50 [1]
1 | CCOc1cc([C@H](C)N2CCc3c(cc(Cn4ccnc4C)cc3-c3c[nH]c(=O)cc3C(F)(F)F)C2=O)ncc1C#N [Example 269, (S)-4-Ethoxy-6-(1-(7-((2-methyl-1H-imidazol-1-yl)methyl)-1-oxo-5-(6-oxo-4-(trifluoromethyl)-1,6-dihydropyridin-3-yl)-3,4-dihydroisoquinolin-2(1H)-yl)ethyl)nicotinonitrile] | 10 to 1000 nM | < 10 nM | 10 to 1000 nM
2 | CCOc1cc([C@H](C)N2CCc3c(cc(Cn4ccnc4C)cc3-c3cn(CCO)nc3C)C2=O)ncc1C#N [Example 271] | 10 to 1000 nM | < 10 nM | 10 to 1000 nM
3 | CCOc1cc([C@H](C)N2CCc3c(cc(Cn4cc(C)nc4C)cc3-c3cn(CCO)nc3C)C2=O)ncc1C#N [Example 272] | 10 to 1000 nM | < 10 nM | 10 to 1000 nM
4 | CCOc1cc([C@H](C)N2CCc3c(cc(Cn4cc(C)nc4C)cc3-c3cn(C)nc3C)C2=O)ncc1C#N [Example 273] | 10 to 1000 nM | < 10 nM | 10 to 1000 nM
5 | CCOc1cc([C@H](C)N2CCc3c(cc(Cn4cc(C)nc4C)cc3-c3cn(C)c(=O)cc3C)C2=O)ncc1C#N [Example 274] | 10 to 1000 nM | < 10 nM | 10 to 1000 nM
6 | CCOc1cc([C@H](C)N2CCc3c(cc(Cn4ccnc4C)cc3-c3cn(C)c(=O)cc3C)C2=O)ncc1C#N [Example 275] | 10 to 1000 nM | < 10 nM | 10 to 1000 nM
7 | CCOc1cc([C@H](C)N2CCc3c(cc(Cn4cnc(C)c4)cc3-c3cn(C)nc3C)C2=O)ncc1C#N [Example 276] | 10 to 1000 nM | < 10 nM | 10 to 1000 nM
8 | CCOc1cc([C@H](C)N2CCc3c(cc(Cn4ccnc4C)cc3-c3nn(C)cc3C)C2=O)ncc1C#N [Example 277] | 10 to 1000 nM | 10 to 1000 nM | 10 to 1000 nM
9 | CCOc1cc([C@H](C)N2CCc3c(cc(Cn4ccnc4C)cc3-c3ccnn3C)C2=O)ncc1C#N [Example 279] | 10 to 1000 nM | < 10 nM | 10 to 1000 nM
10 | CCOc1cc([C@H](C)N2CCc3c(cc(Cn4ccnc4C)cc3-c3cc(C)nn3C)C2=O)ncc1C#N [Example 280] | < 10 nM | < 10 nM | 10 to 1000 nM
11 | CCOc1cc([C@H](C)N2CCc3c(cc(Cn4ccnc4C)cc3-c3cn(C)c(=O)cc3C)C2=O)ncc1F [Example 281] | 10 to 1000 nM | < 10 nM | 10 to 1000 nM
12 | CCOc1cc([C@H](C)N2CCc3c(cc(Cn4ccnc4C)cc3-c3cc(C(F)F)cnc3C)C2=O)ncc1C#N [Example 282] | 10 to 1000 nM | < 10 nM | 10 to 1000 nM
13 | CCOc1cc([C@H](C)N2CCc3c(cc(Cn4ccnc4C)cc3-c3cn(C)c(=O)c(F)c3C)C2=O)ncc1F [Example 283] | 10 to 1000 nM | < 10 nM | 10 to 1000 nM
14 | CCOc1cc([C@H](C)N2CCc3c(cc(Cn4ccnc4C)cc3-c3cn(S(C)(=O)=O)nc3C)C2=O)ncc1C#N [Example 284] | 10 to 1000 nM | < 10 nM | 10 to 1000 nM
15 | CCOc1cc([C@H](C)N2CCc3c(cc(Cn4ccnc4C)cc3-c3cn(C)c(=O)cc3C(F)F)C2=O)ncc1C#N [Example 285] | < 10 nM | < 10 nM | 10 to 1000 nM
16 | CCOc1cc([C@H](C)N2CCc3c(cc(Cn4ccnc4C)cc3-c3cn(C(F)F)nc3C)C2=O)ncc1C#N [Example 286] | < 10 nM | < 10 nM | 10 to 1000 nM
17 | CCOc1cc([C@H](C)N2CCc3c(cc(Cn4ccnc4C)cc3-c3cn(C)c(=O)c(F)c3C)C2=O)ncc1C#N [Example 287] | 10 to 1000 nM | < 10 nM | 10 to 1000 nM
18 | CCOc1cc([C@H](C)N2CCc3c(cc(Cn4ccnc4C)cc3-c3cn(C)c(=O)cc3C(F)(F)F)C2=O)ncc1C#N [Example 288] | < 10 nM | < 10 nM | 10 to 1000 nM
19 | CCOc1cc([C@H](C)N2CCc3c(cc(Cn4cncc4C)cc3-c3cn(C)nc3C)C2=O)ncc1C#N [Example 289] | 1000 to 25000 nM | < 10 nM | 10 to 1000 nM
